Results published in patent publication US12697368B2, “TSG6 polypeptide fragment for dry eye disease” (The University of Manchester, priority 2019, dated 2026).

Columns and labels:
[1] = interaction is cooperative; cited from earlier work
[2] = tested on: NOD.B10.H2b mice; conditions: recombinant TSG-6 (0.1%) topical 4 times a day, 1 week; vs 0.05% cyclosporine twice a day; cited from earlier work
[3] = Solubility in PBS by UV spectrophotometry; assay type: physicochemical
Protocol: (§1) The solubility and aggregation state of full-length TSG-6 and LINK_TSG6 in PBS were compared using UV spectrophotometry and dynamic light scattering (DLS) at a range of concentrations. […] The full-length protein had much lower solubility with less than 40% of the protein remaining in solution at 0.4, 0.8, 1.6. and 3.2 mg/ml.

[4] = Aggregation state in PBS by dynamic light scattering (DLS); assay type: physicochemical
Protocol: as §1

[5] = tested on: rat eyes; conditions: ethanol application and mechanical debridement; cited from earlier work

full-length TSG-6: full length human recombinant TSG-6 protein (R&D Systems), ~35 kDa secreted product of TNF-stimulated gene-6
binding to HA compared with LINK_TSG6 [1]: binds more effectively
efficacy in inflammation mediated dry eye compared with cyclosporine eye drops [2]: as effective
protein remaining in solution ([3]; PBS, 0.4, 0.8, 1.6 and 3.2 mg/ml): less than 40%
solubility and stability in solution ([3]; general statement): insoluble and prone to aggregation
aggregation ([4]; 0.2, 0.4, 0.8, 1.6 and 3.2 mg/ml): highly aggregated
size of aggregates formed ([4]; 1.6 and 3.2 mg/ml, DLS measurements out of range): greater than 25 million
corneal opacity as compared to a PBS control [5]: reduced
neovascularization as compared to a PBS control [5]: reduced
